The values that follow are results of earlier work, collected in US12502358B1, “Centanafadine multiphasic controlled-release pharmaceutical formulation” (Innovate Therapeutics LLC, priority 2024, dated 2025).

The target in data set [1] is norepinephrine reuptake transporter (NET) (Homo sapiens, UniProt P23975). The following applies: rank among NET, DAT, SERT.
The target of data set [2] is dopamine reuptake transporter (DAT) (Homo sapiens, UniProt Q01959). The following applies: fraction of the potency towards NET.
dopamine reuptake transporter (DAT), sequence (Q01959 whole entry, species assumed): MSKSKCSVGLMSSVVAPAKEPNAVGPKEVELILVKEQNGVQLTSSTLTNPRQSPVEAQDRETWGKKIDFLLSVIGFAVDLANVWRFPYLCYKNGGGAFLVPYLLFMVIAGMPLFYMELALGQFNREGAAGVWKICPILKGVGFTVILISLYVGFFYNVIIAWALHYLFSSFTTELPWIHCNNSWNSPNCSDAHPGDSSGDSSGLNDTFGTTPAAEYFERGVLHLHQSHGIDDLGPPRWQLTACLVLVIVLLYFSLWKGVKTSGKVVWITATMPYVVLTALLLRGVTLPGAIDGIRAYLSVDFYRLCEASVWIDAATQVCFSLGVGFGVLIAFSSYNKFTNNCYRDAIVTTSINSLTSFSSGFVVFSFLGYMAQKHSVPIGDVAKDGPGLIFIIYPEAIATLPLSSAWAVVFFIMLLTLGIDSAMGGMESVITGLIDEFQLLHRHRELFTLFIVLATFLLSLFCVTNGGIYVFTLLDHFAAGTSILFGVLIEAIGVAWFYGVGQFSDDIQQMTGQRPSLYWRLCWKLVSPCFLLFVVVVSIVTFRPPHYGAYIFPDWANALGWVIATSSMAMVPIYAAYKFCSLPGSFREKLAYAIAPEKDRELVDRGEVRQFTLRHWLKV
Data set [3] concerns the target serotonin reuptake transporter (SERT) (Homo sapiens, UniProt P31645). The following applies: fraction of the potency towards NET.
For data set [4] the following is noted: per BCS classification.

serotonin reuptake transporter (SERT), sequence (P31645 whole entry, species assumed): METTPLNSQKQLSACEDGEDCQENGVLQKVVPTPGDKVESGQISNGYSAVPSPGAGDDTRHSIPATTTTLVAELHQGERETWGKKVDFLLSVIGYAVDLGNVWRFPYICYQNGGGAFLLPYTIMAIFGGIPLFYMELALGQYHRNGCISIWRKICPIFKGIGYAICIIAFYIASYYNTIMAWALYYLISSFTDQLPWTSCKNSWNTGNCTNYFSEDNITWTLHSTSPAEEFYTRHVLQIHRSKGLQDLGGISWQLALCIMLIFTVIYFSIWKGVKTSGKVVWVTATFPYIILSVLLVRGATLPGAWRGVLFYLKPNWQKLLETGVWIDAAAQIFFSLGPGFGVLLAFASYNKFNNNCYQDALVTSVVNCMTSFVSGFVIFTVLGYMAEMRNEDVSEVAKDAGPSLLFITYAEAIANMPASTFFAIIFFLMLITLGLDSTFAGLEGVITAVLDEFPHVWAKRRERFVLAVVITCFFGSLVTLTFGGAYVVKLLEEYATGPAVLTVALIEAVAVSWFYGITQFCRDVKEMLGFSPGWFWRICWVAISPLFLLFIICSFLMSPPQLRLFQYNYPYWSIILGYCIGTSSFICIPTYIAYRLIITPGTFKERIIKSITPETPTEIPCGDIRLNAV
norepinephrine reuptake transporter (NET), sequence (P23975 whole entry): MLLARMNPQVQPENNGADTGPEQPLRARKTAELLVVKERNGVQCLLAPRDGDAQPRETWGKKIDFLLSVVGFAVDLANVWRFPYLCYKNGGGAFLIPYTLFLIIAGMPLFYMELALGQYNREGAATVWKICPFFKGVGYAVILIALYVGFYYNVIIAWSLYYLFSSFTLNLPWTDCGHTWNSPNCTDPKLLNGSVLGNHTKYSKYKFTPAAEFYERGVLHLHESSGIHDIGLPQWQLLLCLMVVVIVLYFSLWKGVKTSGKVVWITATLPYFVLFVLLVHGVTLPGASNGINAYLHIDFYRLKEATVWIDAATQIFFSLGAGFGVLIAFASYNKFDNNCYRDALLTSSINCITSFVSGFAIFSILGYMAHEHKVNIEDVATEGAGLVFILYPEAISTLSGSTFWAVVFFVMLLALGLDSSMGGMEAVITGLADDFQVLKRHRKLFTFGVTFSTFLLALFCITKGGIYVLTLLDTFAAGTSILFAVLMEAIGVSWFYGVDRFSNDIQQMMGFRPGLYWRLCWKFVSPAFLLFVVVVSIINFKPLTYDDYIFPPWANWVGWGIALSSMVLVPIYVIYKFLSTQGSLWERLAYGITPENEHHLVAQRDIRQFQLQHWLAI

In the case of `c1ccc2cc([C@]34CNC[C@H]3C4)ccc2c1` [Centanafadine, (1R,5S)-1-(naphthalen-2-yl)-3-azabicyclo[3.1.0]hexane], the “potency towards the norepinephrine reuptake transporter (NET)” value in data set [1] is given as “most potency”. Moreover, the “potency towards the dopamine reuptake transporter (DAT) relative to NET” value in data set [2] is given as “one-sixth as much”. Also, the “potency towards the serotonin reuptake transporter (SERT) relative to NET” value in data set [3] is “one-fourteenth as much”. In addition, in data set [4], the solubility result was “highly soluble”.
